How the values were obtained:
[1] = known ability; cited from earlier work
P-glycoprotein = assay: Functionality of the P-glycoprotein: passage of rhodamine 123 with or without Zosuquidar, primary murine devices; format: in vitro ADME, mouse
Protocol: This functionality test is carried out with rhodamine 123, because it is known that this molecule as a substrate for the P-glycoprotein is expelled by the P-glycoprotein into the luminal compartment, which thus limits its passage through the device. The culture media are replenished: 1 mL in the abluminal compartment and 250 μL in the luminal compartment either containing or not containing the Zosuquidar inhibitor of P-glycoprotein P at 5 μM (Dantzig et al. 1996). The devices are incubated for 2 hrs in the incubator. Then, 250 μL of medium containing 2 μM rhodamine 123 with or without 5 μM Zosuquidar are added into the luminal compartment and incubated for 1 hr in the incubator. […] The reading of the fluorescence intensity is done on the same apparatus as for the permeability test (described above). The λex of the rhodamine is 500 nm and the λem is 524 nm.
Indeed it is known that rhodamine 123 as a substrate for glycoprotein P is expelled by the glycoprotein P into the luminal compartment, which limits the passage thereof through the device. Zosuquidar is an inhibitor of P-glycoprotein, therefore its use should limit the efflux of rhodamine 123 into the luminal compartment.
As in Example 4, the passage of rhodamine 123 in the presence or absence of Zosuquidar was studied.

P-gp glycoprotein = assay: Functionality of P-glycoprotein in the commercially available device (Rhodamine 123 with or without Zosuquidar); format: in vitro ADME, rat; conditions: commercially available model
Protocol: Here again, the functionality of the commercially available model was evaluated by studying the passage of Rhodamine 123 in the presence or absence of the specific inhibitor of the P-gp glycoprotein, Zosuquidar.

P-gp efflux pump = assay: Functionality of P-glycoprotein on murine devices with immortalised cell lines

Compound: O=C1CN=C(c2ccccn2)c2cc(Br)ccc2N1 [BROMO, Bromazepam]
- Passage through the HEB [1]: +

Compound: NCCc1ccc(O)c(O)c1 [DA, Dopamine]
- Passage through the HEB [1]: −

Compound: Clc1ccc(C(c2ccccc2Cl)C(Cl)Cl)cc1 (centres unmarked) [MITO, Mitotane]
- Passage through the HEB [1]: −

Compound: OC[C@H]1O[C@@](CO)(O[C@H]2O[C@H](CO)[C@@H](O)[C@H](O)[C@H]2O)[C@@H](O)[C@@H]1O [SUC, Sucrose]
- Passage through the HEB [1]: +

Compound: O[C@@H](COc1cccc2ncccc12)CN1CCN([C@@H]2c3ccccc3[C@@H]3[C@H](c4ccccc42)C3(F)F)CC1 [Zosuquidar]
- inhibition of the efflux (of rhodamine 123) by the specific P-glycoprotein inhibitor (P-glycoprotein; 5 μM Zosuquidar, device WT): 57.3%
- effect on P-gp functionality (P-glycoprotein; 24- and 96-well format devices): inhibited
- effect of Zosuquidar on Rhodamine 123 passage (P-gp glycoprotein): no effect
- Passage through the HEB [1]: −
- effect of the specific Glycoprotein P inhibitor (P-gp efflux pump; all the formats): does not show any effect

Compound: rhodamine 123
- passage of Rhodamine123 to the luminal side after addition into the abluminal compartment (P-glycoprotein; 24- and 96-well format devices): comparable to cell-free HEBs
- passage of Rhodamine123 to the abluminal side (P-glycoprotein; 24- and 96-well format devices, added luminal): passes very little on to the abluminal side
- decrease of the passage of rhodamine 123 to the abluminal compartment as compared to the device without cells (P-glycoprotein; device WT, 1 hr incubation): 72.6%
- efflux of Rhodamine123 (P-gp glycoprotein; regardless of the side where it is deposited): 97%
- limitation of the passage of Rhodamine 123 on the abluminal side (P-gp efflux pump; 12-, 24-, and 96 well plate formats): more than 60%

From patent US20220010258A1, “DEVICE THAT CAN SERVE AS A HEMATO-ENCEPHALITIC BARRIER MODEL” (priority 2017, published 2022)
